Source: patent US20180185440A1, “PHARMACEUTICAL COMPOSITIONS AND METHODS FOR DELIVERY OF BREMELANOTIDE” (NOVEN PHARMACEUTICALS, INC., priority 2016, published 2018)

Test: in vivo delivery of bremelanotide by oral capsules (rats)
Set-up: species or system rat
Details: oral capsules with patches, FIG. 8
Experimental: The capsules of Examples 4-15 and Control 2, described above, were tested in vivo in a rat model. Capsules were administered by oral gavage administration using a dosing tool, followed by administration of 0.3 mL of water. Blood samples were drawn until 5 hours after administration and assayed for bremelanotide concentration as a function of time. FIGS. 5-8 illustrate the blood levels (pg/ml) of bremelanotide achieved (reported as the average from n=2 or 3 rats per formulation tested). […] The results illustrated in FIGS. 6 and 7 indicate that increasing the relative amount of penetration enhancer results in increased bremelanotide delivery.

## CCCCCCCCCCCCO[C@@H]1O[C@H](CO)[C@@H](O[C@H]2O[C@H](CO)[C@@H](O)[C@H](O)[C@H]2O)[C@H](O)[C@H]1O [n-DMS, n-dodecyl-β-D-maltoside]
  enhancer effect for bremelanotide through the GI tract: effective enhancers
